# Test system: patients after acute myocardial infarction
# Experiment: Life quality, Seattle Angina Questionnaire (SAQ), same clinical trial
# Assay type: in vivo, human
# From the text: 3508 patients who were in accordance with the diagnostic standards of AMI for 28 days to 2 years and differentiated as Qi deficiency and blood stagnation syndrome by TCM were studied. 0.5 g Chinese medicine composition prepared by the method of EXAMPLE 1 (Coded as QSYQ) was administrated half an hour after meal, 3 times per day.
# There were 19 questions in the Seattle angina questionnaire (SAQ), including 5 parts: physical limitation (PL), anginal stability (AS), anginal frequency (AF), treatment satisfaction (TS) and disease perception (DP). After being given necessary explanation by doctors, the questions were answered independently by patients.
# They included the overall survival time, angina pectoris score, TCM symptom score and life quality score, where angina pectoris score, TCM symptom score and life quality score were evaluated at randomization, in 1st, 3rd, 6th, 9th, 12th month after treatment and 18th month after follow-up.
# All evaluation results of SAQ were described during the period of observation, and Wilcoxon rank sum test was used for inter-group comparison.
# The evaluation results in the SAQ were depicted in different observations, and inter-group comparison was tested by Wilcoxon Rank-sum test.
compound,measurement,setting,value
"CC(=O)Oc1ccccc1C(=O)O [Control group, aspirine]","SAQ 3rd question: ≧4 times per day, cases","3 months after treatment, PP",6
same,"SAQ Question 1-3: Mildly limited, number of patients","3 months after treatment, PP",81
same,"SAQ Question 1-3: Mildly limited, percent of patients","3 months after treatment, PP",(5.51%)
same,"SAQ Question 1-3: Moderately limited, number of patients","3 months after treatment, PP",16
same,"SAQ Question 1-3: Moderately limited, percent of patients","3 months after treatment, PP",(1.09%)
same,"SAQ Question 1-3: Not limited, number of patients","3 months after treatment, PP",1103
same,"SAQ Question 1-3: Not limited, percent of patients","3 months after treatment, PP",(75.03%)
same,"SAQ Question 1-3: Other reason, number of patients","3 months after treatment, PP",8
same,"SAQ Question 1-3: Other reason, percent of patients","3 months after treatment, PP",(0.54%)
same,"SAQ Question 1-3: Severely limited, number of patients","3 months after treatment, PP",5
same,"SAQ Question 1-3: Severely limited, percent of patients","3 months after treatment, PP",(0.34%)
same,"SAQ Question 1-3: Slightly limited, number of patients","3 months after treatment, PP",257
same,"SAQ Question 1-3: Slightly limited, percent of patients","3 months after treatment, PP",(17.48%)
same,"SAQ Question 1-4: Mildly limited, number of patients","3 months after treatment, PP",278
same,"SAQ Question 1-4: Mildly limited, percent of patients","3 months after treatment, PP",(18.95%)
same,"SAQ Question 1-4: Moderately limited, number of patients","3 months after treatment, PP",105
same,"SAQ Question 1-4: Moderately limited, percent of patients","3 months after treatment, PP",(7.16%)
same,"SAQ Question 1-4: Not limited, number of patients","3 months after treatment, PP",559
same,"SAQ Question 1-4: Not limited, percent of patients","3 months after treatment, PP",(38.10%)
same,"SAQ Question 1-4: Other limited, number of patients","3 months after treatment, PP",11
same,"SAQ Question 1-4: Other limited, percent of patients","3 months after treatment, PP",(0.75%)
same,"SAQ Question 1-4: Severely limited, number of patients","3 months after treatment, PP",22
same,"SAQ Question 1-4: Severely limited, percent of patients","3 months after treatment, PP",(1.50%)
same,"SAQ Question 1-4: Slightly limited, number of patients","3 months after treatment, PP",492
same,"SAQ Question 1-4: Slightly limited, percent of patients","3 months after treatment, PP",(33.54%)
same,"SAQ Question 1-5: Mildly limited, number of patients","3 months after treatment, PP",268
same,"SAQ Question 1-5: Mildly limited, percent of patients","3 months after treatment, PP",(18.27%)
same,"SAQ Question 1-5: Moderately limited, number of patients","3 months after treatment, PP",137
same,"SAQ Question 1-5: Moderately limited, percent of patients","3 months after treatment, PP",(9.34%)
same,"SAQ Question 1-5: Not limited, number of patients","3 months after treatment, PP",594
same,"SAQ Question 1-5: Not limited, percent of patients","3 months after treatment, PP",(40.49%)
same,"SAQ Question 1-5: Other reasons, number of patients","3 months after treatment, PP",11
same,"SAQ Question 1-5: Other reasons, percent of patients","3 months after treatment, PP",(0.75%)
same,"SAQ Question 1-5: Severely limited, number of patients","3 months after treatment, PP",16
same,"SAQ Question 1-5: Severely limited, percent of patients","3 months after treatment, PP",(1.09%)
same,"SAQ Question 1-5: Slightly limited, number of patients","3 months after treatment, PP",441
same,"SAQ Question 1-5: Slightly limited, percent of patients","3 months after treatment, PP",(30.06%)
same,"SAQ Question 1-9: Mildly limited, % of cases","3 months after treatment, PP",(18.45%)
same,"SAQ Question 1-9: Mildly limited, cases","3 months after treatment, PP",264
same,"SAQ Question 1-9: Moderately limited, % of cases","3 months after treatment, PP",(20.48%)
same,"SAQ Question 1-9: Moderately limited, cases","3 months after treatment, PP",293
same,"SAQ Question 1-9: Not limited, % of cases","3 months after treatment, PP",(3.70%)
same,"SAQ Question 1-9: Not limited, cases","3 months after treatment, PP",53
same,"SAQ Question 1-9: Other reaons, % of cases","3 months after treatment, PP",(6.08%)
same,"SAQ Question 1-9: Other reaons, cases","3 months after treatment, PP",87
same,"SAQ Question 1-9: Severely limited, % of cases","3 months after treatment, PP",(39.41%)
same,"SAQ Question 1-9: Severely limited, cases","3 months after treatment, PP",564
same,"SAQ Question 1-9: Slightly limited, % of cases","3 months after treatment, PP",(11.88%)
same,"SAQ Question 1-9: Slightly limited, cases","3 months after treatment, PP",170
same,"SAQ 2nd question: 6, % of cases","6 months after treatment, FAS",(0.00%)
same,"SAQ 2nd question: 6, cases","6 months after treatment, FAS",0
same,"SAQ 2nd question: Clearly increased, % of cases","6 months after treatment, FAS",(0.98%)
same,"SAQ 2nd question: Clearly increased, cases","6 months after treatment, FAS",17
same,"SAQ 2nd question: Clearly reduced, % of cases","6 months after treatment, FAS",(22.98%)
same,"SAQ 2nd question: Clearly reduced, cases","6 months after treatment, FAS",400
same,"SAQ 2nd question: Same, % of cases","6 months after treatment, FAS",(37.33%)
same,"SAQ 2nd question: Same, cases","6 months after treatment, FAS",650
same,"SAQ 2nd question: Slightly increased, % of cases","6 months after treatment, FAS",(3.68%)
same,"SAQ 2nd question: Slightly increased, cases","6 months after treatment, FAS",64
same,"SAQ 2nd question: Slightly reduced, % of cases","6 months after treatment, FAS",(35.04%)
same,"SAQ 2nd question: Slightly reduced, cases","6 months after treatment, FAS",610
same,"SAQ 3rd question: 1-2 times per week, % of cases","6 months after treatment, FAS",(35.04%)
same,"SAQ 3rd question: 1-2 times per week, cases","6 months after treatment, FAS",610
same,"SAQ 3rd question: 1-3 times per day, % of cases","6 months after treatment, FAS",(3.68%)
same,"SAQ 3rd question: 1-3 times per day, cases","6 months after treatment, FAS",64
same,"SAQ 3rd question: <1 time per week, % of cases","6 months after treatment, FAS",(22.98%)
same,"SAQ 3rd question: <1 time per week, cases","6 months after treatment, FAS",400
same,"SAQ 3rd question: No onset, % of cases","6 months after treatment, FAS",(0.00%)
same,"SAQ 3rd question: No onset, cases","6 months after treatment, FAS",0
same,"SAQ 3rd question: ≧3 times per week, % of cases","6 months after treatment, FAS",(37.33%)
same,"SAQ 3rd question: ≧3 times per week, cases","6 months after treatment, FAS",650
same,"SAQ 3rd question: ≧4 times per day, % of cases","6 months after treatment, FAS",(0.98%)
same,"SAQ 3rd question: ≧4 times per day, cases","6 months after treatment, FAS",17
same,"SAQ Question 1-3: Mildly limited, number of patients","6 months after treatment, FAS",86
same,"SAQ Question 1-3: Mildly limited, percent of patients","6 months after treatment, FAS",(4.93%)
same,"SAQ Question 1-3: Moderately limited, number of patients","6 months after treatment, FAS",20
same,"SAQ Question 1-3: Moderately limited, percent of patients","6 months after treatment, FAS",(1.15%)
